A value given as a limit tells only on which side of the number the result lay.

Sequence of PI3Kα (alpha) (P42336 whole entry): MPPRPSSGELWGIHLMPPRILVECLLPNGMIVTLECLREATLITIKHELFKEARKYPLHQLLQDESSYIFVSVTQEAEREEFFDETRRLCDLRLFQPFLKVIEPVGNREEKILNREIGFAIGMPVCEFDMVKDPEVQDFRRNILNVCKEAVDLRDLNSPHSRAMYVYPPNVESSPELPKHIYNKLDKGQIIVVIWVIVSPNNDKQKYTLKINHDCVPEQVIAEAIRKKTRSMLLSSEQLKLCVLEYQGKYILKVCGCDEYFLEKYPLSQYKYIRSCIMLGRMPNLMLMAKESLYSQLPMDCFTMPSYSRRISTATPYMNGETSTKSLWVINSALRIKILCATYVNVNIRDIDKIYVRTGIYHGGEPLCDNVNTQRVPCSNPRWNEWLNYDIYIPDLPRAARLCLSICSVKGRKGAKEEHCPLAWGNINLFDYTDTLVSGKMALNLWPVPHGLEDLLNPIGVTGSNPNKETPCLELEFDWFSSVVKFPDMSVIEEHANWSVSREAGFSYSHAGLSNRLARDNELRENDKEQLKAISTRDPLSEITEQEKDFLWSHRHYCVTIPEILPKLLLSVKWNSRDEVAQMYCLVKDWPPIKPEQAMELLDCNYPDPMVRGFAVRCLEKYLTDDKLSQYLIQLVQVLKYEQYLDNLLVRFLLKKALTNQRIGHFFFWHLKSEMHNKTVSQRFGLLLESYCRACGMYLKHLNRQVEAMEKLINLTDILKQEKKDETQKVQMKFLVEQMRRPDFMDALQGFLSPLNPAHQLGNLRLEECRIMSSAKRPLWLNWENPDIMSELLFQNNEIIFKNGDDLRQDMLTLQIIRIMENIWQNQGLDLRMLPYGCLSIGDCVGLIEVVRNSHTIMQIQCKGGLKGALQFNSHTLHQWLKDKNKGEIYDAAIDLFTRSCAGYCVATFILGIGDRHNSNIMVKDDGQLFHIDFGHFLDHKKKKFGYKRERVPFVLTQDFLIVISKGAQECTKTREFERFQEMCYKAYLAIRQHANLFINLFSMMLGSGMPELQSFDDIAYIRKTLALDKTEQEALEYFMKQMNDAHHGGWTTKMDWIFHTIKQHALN
Sequence of PI3Kα (alpha) (P27986 whole entry partner): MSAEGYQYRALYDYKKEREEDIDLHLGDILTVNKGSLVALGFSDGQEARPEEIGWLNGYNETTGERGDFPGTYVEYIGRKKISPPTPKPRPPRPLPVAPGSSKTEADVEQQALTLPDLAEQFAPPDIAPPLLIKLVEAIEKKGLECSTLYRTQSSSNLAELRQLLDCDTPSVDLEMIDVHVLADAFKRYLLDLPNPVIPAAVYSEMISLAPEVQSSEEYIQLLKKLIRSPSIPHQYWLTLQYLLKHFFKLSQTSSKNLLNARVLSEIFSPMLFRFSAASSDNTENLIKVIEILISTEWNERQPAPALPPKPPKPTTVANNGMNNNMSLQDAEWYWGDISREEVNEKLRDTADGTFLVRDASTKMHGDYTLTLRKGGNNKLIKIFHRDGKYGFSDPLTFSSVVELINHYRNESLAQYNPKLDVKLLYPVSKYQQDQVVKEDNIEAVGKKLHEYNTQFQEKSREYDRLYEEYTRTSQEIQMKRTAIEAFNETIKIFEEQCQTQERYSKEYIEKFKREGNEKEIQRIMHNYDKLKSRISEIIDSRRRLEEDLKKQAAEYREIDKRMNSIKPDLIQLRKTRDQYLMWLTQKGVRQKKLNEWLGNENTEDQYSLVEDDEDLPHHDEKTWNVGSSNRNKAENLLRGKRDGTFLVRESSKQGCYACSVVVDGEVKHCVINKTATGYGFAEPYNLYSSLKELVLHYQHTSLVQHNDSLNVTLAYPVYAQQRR

This test addresses PI3Kα (alpha) (Homo sapiens (Human), UniProt P42336). The test can be described thus: p110α (alpha) PI3K Binding Assay (ADP-Glo lipid kinase reaction). As to conditions: PI3K alpha 0.2 nM, ATP 40 μM, PIP2:3PS 50 μM, 120 min, room temperature; Ki by Morrison Equation; read-out: PI3Kα-(alpha) ATP (Ki) micromolar. It counts as biochemical. Here is the method: The ability of a compound of the invention to act as an inhibitor of PI3Kα was determined using the methods of Example 901.
PI3K Binding assays are intended for determining the biochemical potency of small molecule PI3K inhibitors. The PI3K lipid kinase reaction is performed in the presence of PIP2:3PS lipid substrate (Promega #V1792) and ATP. Following the termination if the kinase reaction, turnover of ATP to ADP by the phosphorylation of the lipid substrate is detected using the Promega ADP-Glo™ (Promega #V1792) assay. Reactions are carried out using the following conditions:
After 120 minutes of reaction time, the kinase reaction is terminated. Any ATP remaining after the reaction is depleted, leaving only ADP. Then the Kinase Detection Reagent is added to convert ADP to ATP, which is used in a coupled luciferin/luciferase reaction. The luminescent output is measured and is correlated with kinase activity.
All reactions are carried out at room temperature. A 3 μl mixture (1:1) of enzyme/lipid substrate solution is added to a 384 well white assay plate (Perkin Elmer #6007299) containing 50 nl of test compound or DMSO only for untreated controls. The reaction is started by the addition of 2 μl ATP/MgCl2. The kinase reaction buffer contains 50 mM HEPES, 50 mM NaCl, 3 mM MgCl2, 0.01% BSA, 1% DMSO, and enzyme and substrate concentrations as indicated in the above table. The reaction is stopped by the addition of 10 μL ADP-Glo reagent. Plates are read in a Perkin Elmer Envision system using luminescence mode. 10 point dose response curves are generated for each test compound. Ki values for each compound are determined using the Morrison Equation.
A general note: ADP-Glo first removes unused ATP, then detects ADP through luciferase.
As to `COC[C@H](Oc1cc2c3c(c1)nc(-c1ccc4nc(N)sc4c1)n3CCCCO2)C(N)=O` (single isomer, unassigned) [Example 303], the Ki came to 5.62 nM.
Under `Cc1nc2nc(-c3nc4cc(Br)cc5c4n3CCCO5)ccc2o1` [Example 102, 4-bromo-1-(2-methyloxazolo[4,5-b]pyridin-5-yl)-8,9-dihydro-7H-6-oxa-2,9a-diazabenzo[cd]azulene] stands 322 nM.
For `NC(=O)[C@@H](Nc1cc2c3c(c1)nc(-c1cn[nH]c1)n3CCCO2)C1CC1` [Example 212, (S)-2-((1-(1H-Pyrazol-4-yl)-8,9-dihydro-7H-6-oxa-2,9a-diazabenzo[cd]azulen-4-yl)amino)-2-cyclopropylacetamide], the Ki amounted to 148 nM.
In the case of `C[C@H](Oc1cc2c3c(c1)nc(-c1ccc4nc(N)cnc4c1)n3CCCCO2)C(N)=O` [Example 244, (S)-2-((1-(2-Aminoquinoxalin-6-yl)-7,8,9,10-tetrahydro-6-oxa-2,10a-diazacycloocta[cd]inden-4-yl)oxy)propanamide], the Ki is below 0.02 nM.
As for `CC[C@H](Oc1cc2c3c(c1)nc(-c1cc(F)c4nc(N)sc4c1)n3CCCCO2)C(N)=O` [Example 273, (S)-2-((1-(2-Amino-4-fluorobenzo[d]thiazol-6-yl)-7,8,9,10-tetrahydro-6-oxa-2,10a-diazacycloocta[cd]inden-4-yl)oxy)butanamide], the Ki is 0.0494 nM.
For `NC(=O)[C@@H]1CCCN1c1cc2c3c(c1)nc(-c1ccc4c(=O)[nH]oc4c1)n3CCCO2` [Example 237, (S)-1-(1-(3-Oxo-2,3-dihydrobenzo[d]isoxazol-6-yl)-8,9-dihydro-7H-6-oxa-2,9a-diazabenzo[cd]azulen-4-yl)pyrrolidine-2-carb oxamide] the value was 137 nM; for `NC(=O)[C@@H](Nc1cc2c3c(c1)nc(-c1ccc4c(c1)OC(F)(F)O4)n3CCCO2)C1CC1` [Example 113, (S)-2-Cyclopropyl-2-((1-(2,2-difluorobenzo[d][1,3]dioxol-5-yl)-8,9-dihydro-7H-6-oxa-2,9a-diazabenzo[cd]azulen-4-yl)amino)acetamide], 268 nM; for `COc1ccc(CNC(=O)[C@@H]2CCCN2c2cc3c4c(c2)nc(-c2ccc5oc(N)nc5c2)n4CCCO3)cc1` [Example 236, (S)-1-(1-(2-Aminobenzo[d]oxazol-5-yl)-8,9-dihydro-7H-6-oxa-2,9a-diazabenzo[cd]azulen-4-yl)-N-(4-methoxybenzyl)pyrrolidine-2-carb oxamide], 21 nM.
For the compound `NC(=O)[C@@H](Nc1cc2c3c(c1)nc(-c1ccc4oc(N)nc4c1)n3CCCO2)C1CC1` [Example 135, (S)-2-((1-(2-Aminobenzo[d]oxazol-5-yl)-8,9-dihydro-7H-6-oxa-2,9a-diazabenzo[cd]azulen-4-yl)amino)-2-cyclopropylacetamide], the Ki worked out at 0.076 nM.
For `NC(=O)[C@@H](Nc1cc2c3c(c1)nc(-c1ccc(OC(F)F)cc1)n3CCCO2)C1CC1` [Example 150, (S)-2-Cyclopropyl-2-((1-(4-(difluoromethoxy)phenyl)-8,9-dihydro-7H-6-oxa-2,9a-diazabenzo[cd]azulen-4-yl)amino)acetamide] the value was 490 nM; for `C[C@H](Oc1cc2c3c(c1)nc(-c1cc(F)c4oc(N)nc4c1F)n3CCCCO2)C(N)=O` [Example 261, (S)-2-((1-(2-Amino-4,7-difluorobenzo[d]oxazol-5-yl)-7,8,9,10-tetrahydro-6-oxa-2,10a-diazacycloocta[cd]inden-4-yl)oxy)propanamide], below 0.02 nM.
Take `NC(=O)[C@@H](Nc1cc2c3c(c1)nc(N1CCCCC1)n3CCCO2)C1CC1` [Example 127, (S)-2-Cyclopropyl-2-(1-piperidin-1-yl-8,9-dihydro-7H-6-oxa-2,9a-diazabenzo[cd]azulen-4-ylamino)acetamide]: the Ki came to 719 nM.
Turning to `C[C@H](Oc1cc2c3c(c1)nc(-c1ccc4oc(N)nc4n1)n3CCCO2)C(N)=O` [Example 266, (S)-2-((1-(2-Aminooxazolo[4,5-b]pyridin-5-yl)-8,9-dihydro-7H-6-oxa-2,9a-diazabenzo[cd]azulen-4-yl)oxy)propanamide], the Ki was found to be 0.108 nM.
Under `C[C@H](Oc1cc2c3c(c1)nc(-c1ccc4nc(N)sc4c1)n3CCCCO2)C(N)=O` [Example 248, (S)-2-((1-(2-Aminobenzo[d]thiazol-6-yl)-7,8,9,10-tetrahydro-6-oxa-2,10a-diazacycloocta[cd]inden-4-yl)oxy)propanamide] stands 0.03 nM; under `NC(=O)[C@@H](Nc1cc2c3c(c1)nc(-c1ccc4sc(N)nc4c1)n3CCCO2)C1CC1` [Example 184, (S)-2-((1-(2-Aminobenzo[d]thiazol-5-yl)-8,9-dihydro-7H-6-oxa-2,9a-diazabenzo[cd]azulen-4-yl)amino)-2-cyclopropylacetamide], 0.491 nM.
Under `C[C@@H](Nc1cc2c3c(c1)nc(-c1ccc4oc(N)nc4c1)n3CCCO2)C(N)=O` [Example 107, (R)-2-((1-(2-Aminobenzo[d]oxazol-5-yl)-8,9-dihydro-7H-6-oxa-2,9a-diazabenzo[cd]azulen-4-yl)amino)propanamide] stands 0.58 nM; under `NC(=O)[C@@H]1CCCN1c1cc2c3c(c1)nc(-c1ccnc4[nH]nnc14)n3CCCO2` [Example 206, (S)-1-(1-(3H-[1,2,3]Triazolo[4,5-b]pyridin-7-yl)-8,9-dihydro-7H-6-oxa-2,9a-diazabenzo[cd]azulen-4-yl)pyrrolidine-2-carb oxamide], 25.9 nM; under `Cc1cc(-c2nc3cc(N[C@H](C(N)=O)C4CC4)cc4c3n2CCCO4)cc2nc(N)oc12` [Example 205, (S)-2-((1-(2-Amino-7-methylbenzo[d]oxazol-5-yl)-8,9-dihydro-7H-6-oxa-2,9a-diazabenzo[cd]azulen-4-yl)amino)-2-cyclopropylacetamide], 0.191 nM.
Under `C[C@H](Oc1cc2c3c(c1)nc(-c1ccc4oc(N)nc4c1)n3CCCO2)C(N)=O` [Example 162, (S)-2-((1-(2-Aminobenzo[d]oxazol-5-yl)-8,9-dihydro-7H-6-oxa-2,9a-diazabenzo [cd]azulen-4-yl)oxy)propanamide] stands 0.201 nM.
For `NC(=O)[C@@H](Oc1cc2c3c(c1)nc(-c1ccc(-c4ncn[nH]4)c(F)c1)n3CCCCO2)C1CC1` (single isomer, unassigned) [Example 305], the Ki was below 0.02 nM.
For `C[C@H](Nc1cc2c3c(c1)nc(-c1ccc4oc(N)nc4c1)n3CCCO2)C(N)=O` [Example 105, (S)-2-((1-(2-Aminobenzo[d]oxazol-5-yl)-8,9-dihydro-7H-6-oxa-2,9a-diazabenzo[cd]azulen-4-yl)amino)propanamide] the value was 0.032 nM.
Under `NC(=O)[C@@H](Nc1cc2c3c(c1)nc(N1CCn4ncnc4C1)n3CCCO2)C1CC1` [Example 161, (S)-2-Cyclopropyl-2-((1-(5,6-dihydro-[1,2,4]triazolo[1,5-a]pyrazin-7(8H)-yl)-8,9-dihydro-7H-6-oxa-2,9a-diazabenzo[cd]azulen-4-yl)amino)acetamide] stands 121 nM.
As for `COC(=O)c1cc(-c2nc3cc(N[C@H](C(N)=O)C4CC4)cc4c3n2CCCO4)ccc1OC` [Example 158, (S)-Methyl 5-(4-((2-amino-1-cyclopropyl-2-oxoethyl)amino)-8,9-dihydro-7H-6-oxa-2,9a-diazabenzo[cd]azulen-1-yl)-2-methoxybenzoate], the Ki was 206 nM.
For the compound `NC(=O)[C@@H](Nc1cc2c3c(c1)nc(-c1ccc4nc(Cl)nn4c1)n3CCCO2)C1CC1` [Example 197, (S)-2-((1-(2-Chloro-[1,2,4]triazolo[1,5-a]pyridin-6-yl)-8,9-dihydro-7H-6-oxa-2,9a-diazabenzo[cd]azulen-4-yl)amino)-2-cyclopropylacetamide], the Ki is 27.2 nM.
For `C[C@H](Nc1cc2c3c(c1)nc(-c1ccccc1)n3CCCO2)C(N)=O` [Example 106, (S)-2-((1-phenyl-8,9-dihydro-7H-6-oxa-2,9a-diazabenzo[cd]azulen-4-yl)amino)propanamide] the value was 130 nM; for `NC(=O)[C@@H](Nc1cc2c3c(c1)nc(-c1ccc4nc(N)sc4c1)n3CCCCO2)C1CC1` [Example 214, (S)-2-((1-(2-Aminobenzo[d]thiazol-6-yl)-7,8,9,10-tetrahydro-6-oxa-2,10a-diazacycloocta[cd]inden-4-yl)amino)-2-cyclopropylacetamide], below 0.02 nM; for `NC(=O)[C@@H](Nc1cc2c3c(c1)nc(-c1ccc4nc(N)ncc4c1)n3CCCO2)C1CC1` [Example 120], 5.34 nM.
Under `C[C@H](Oc1cc2c3c(c1)nc(-c1ccc4nc(N)sc4c1)n3CCCO2)C(N)=O` [Example 274, (S)-2-((1-(2-Aminobenzo[d]thiazol-6-yl)-8,9-dihydro-7H-6-oxa-2,9a-diazabenzo[cd]azulen-4-yl)oxy)propanamide] stands 2.1 nM; under `NC(=O)[C@@H](Nc1cc2c3c(c1)nc(-c1ccc4c(c1)OCO4)n3CCCO2)C1CC1` [Example 114, (S)-2-((1-(Benzo[d][1,3]dioxol-5-yl)-8,9-dihydro-7H-6-oxa-2,9a-diazabenzo[cd]azulen-4-yl)amino)-2-cyclopropylacetamide], 23.3 nM.

A word on the Ki: it is a measure of affinity in units of concentration, obtained from inhibition or displacement.

The values are drawn from patent US10065970B2 (Genentech, Inc., priority 2015, dated 2018).
